Laboratory results as given in patent US11723929B2, “Methods of improving cell-based therapy” (THE REGENTS OF THE UNIVERSITY OF CALIFORNIA, priority 2017, dated 2023).

Assays:
[1] = test system: COX-1; experiment: Inhibitory activity against COX-1 (Table 4); format: biochemical; set-up: dose or concentration left out as unconfirmed
[2] = target: T1, sEH (Homo sapiens (Human), UniProt P34913); experiment: Inhibitory activity against sEH (Table 4); conditions: read-out: sEH
[3] = PTZ Induced Seizure Model; Example 52 and FIG. 7 of WO 2015/148954; cited from earlier work
[4] = target: T1, sEH; experiment: Testing as inhibitor of sEH; format: biochemical
Description: Derivatives of urea are transition state mimetics that form a group of sEH inhibitors. […] Any particular urea derivative or other compound can be easily tested for its ability to inhibit sEH by standard assays, such as those discussed herein. The production and testing of urea and carbamate derivatives as sEH inhibitors is set forth in detail in, for example, Morisseau et al., Proc Natl Acad Sci (USA) 96:8849-8854 (1999).
(§1) Both the 1- and the 2-adamantyl ureas have been tested and have about the same high activity as an inhibitor of sEH.
One category of these inhibitors comprises inhibitors that mimic the substrate for the enzyme. The lipid alkoxides (e.g., the 9-methoxide of stearic acid) are an exemplar of this group of inhibitors.

[5] = Metabolic stability; format: in vitro ADME
Description: as §1

[6] = test system: PDE4; experiment: PDE4 inhibition by cAMP increase in live HEK cells transfected with a PKA biosensor; format: cell-based, human; conditions: relative to Rolipram at 1 μM
[7] = test system: murine myocardial infarction (MI) model; experiment: Echocardiography, left ventricular fractional shortening after MI; format: in vivo, mouse
Description: The animals were followed for a period of three weeks at which time repeat echocardiograms were performed.
An increase in hiPSC-CMs engraftment translated into a significant improvement in cardiac function.

[8] = cited from earlier work
[9] = test system: murine myocardial infarction (MI) model; experiment: Flow cytometric quantification of GFP+ hiPSC-CMs in the post MI model; conditions: NSG mice post MI with transplanted hiPSC-CMs, with or without TPPU; after 4 weeks
[10] = test system: murine myocardial infarction (MI) model; experiment: In vivo bioluminescence imaging of transplanted hiPSC-CMs in the post MI model; conditions: NSG mice post MI with transplanted hiPSC-CMs, with or without TPPU 15 mg/L in drinking water; BLI at 3 and 4 weeks
[11] = Exp. logP (Table 3); format: physicochemical

Row | SMILES | COX-1 (% inhibition) [1] | IC50 [2] | also measured
1 | NS(=O)(=O)c1ccc(-n2nc(CCCNC(=O)Nc3ccc(OC(F)(F)F)cc3)cc2-c2ccccc2)cc1 [compound 2329, 4-(5-Phenyl-3-{3-[3-(4-trifluoromethoxy-phenyl)-ureido]-propyl}-pyrazol-1-yl)-benzenesulfonamide] | 13.8 % inhibition | 0.5 ± 0.1 nM | –
2 | CS(=O)(=O)c1ccc(-n2nc(CCCNC(=O)Nc3cccc(C(F)(F)F)c3)cc2-c2ccccc2)cc1 [compound 1862, 1-{3-[1-(4-Methanesulfonyl-phenyl)-5-phenyl-1H-pyrazol-3-yl]-propyl}-3-(3-trifluoromethyl-phenyl)-urea] | 6.4 % inhibition | 3.4 ± 0.2 nM | –
3 | CS(=O)(=O)c1ccc(-n2nc(CNC(=O)Nc3ccc(OC(F)(F)F)cc3)cc2-c2ccccc2)cc1 [compound 2323, 1-[1-(4-Methanesulfonyl-phenyl)-5-phenyl-1H-pyrazol-3-ylmethyl]-3-(4-trifluoromethoxy-phenyl)-urea] | 10.4 % inhibition | 6 ± 0.5 nM | –
4 | NS(=O)(=O)c1ccc(-n2nc(NC(=O)Nc3cccc(C(F)(F)F)c3)cc2-c2ccccc2)cc1 [compound 2121, 4-{5-Phenyl-3-[3-(3-trifluoromethyl-phenyl)-ureido]-pyrazol-1-yl}-benzenesulfonamide] | 33.9 % inhibition | 88 ± 5 nM | –
5 | O=C(Nc1ccc(OC(F)(F)F)c(F)c1)NC1CCN(C(=O)C2CCOCC2)CC1 [1-(3-fluoro-4-(trifluoromethoxy)phenyl)-3-(1-(tetrahydro-2H-pyran-4-carbo-nyl)piperidin-4-yl)urea] | – | – | crossing of the blood-brain barrier [3]: cross the blood-brain barrier
6 | CS(=O)(=O)c1ccc(-n2nc(CNC(=O)Nc3ccccc3)cc2-c2ccccc2)cc1 [compound 2322, 1-[1-(4-Methanesulfonyl-phenyl)-5-phenyl-1H-pyrazol-3-ylmethyl]-3-phenyl-urea] | – | 47 ± 4 nM | –
7 | NS(=O)(=O)c1ccc(-n2nc(CCNC(=O)Nc3cccc(C(F)(F)F)c3)cc2-c2ccccc2)cc1 [compound 2313, 4-(5-Phenyl-3-{2-[3-(3-trifluoromethyl-phenyl)-ureido]-ethyl}-pyrazol-1-yl)-benzenesulfonamide] | 22.0 % inhibition | 26 ± 3 nM | –
8 | CS(=O)(=O)c1ccc(-n2nc(CNC(=O)NC34CC5CC(CC(C5)C3)C4)cc2-c2ccccc2)cc1 [compound 1860, 1-Adamantan-1-yl-3-[1-(4-methanesulfonyl-phenyl)-5-phenyl-1H-pyrazol-3-ylmethyl]-urea] | 12.7 % inhibition | 25 ± 1 nM | –
9 | CC(C)(C)c1cc(CNC(=O)Nc2cccc(C(F)(F)F)c2)nn1-c1ccc(S(C)(=O)=O)cc1 [compound 2106, 1-[5-tert-Butyl-1-(4-methanesulfonyl-phenyl)-1H-pyrazol-3-ylmethyl]-3-(3-trifluoromethyl-phenyl)-urea] | 2.4 % inhibition | 32 ± 3 nM | –
10 | NS(=O)(=O)c1ccc(-n2nc(CCCNC(=O)NC3CCCCCC3)cc2-c2ccccc2)cc1 [compound 2247, 4-{3-[3-(3-Cycloheptyl-ureido)-propyl]-5-phenyl-pyrazol-1-yl}-benzenesulfonamide] | 10.2 % inhibition | 0.5 ± 0.1 nM | –
11 | NS(=O)(=O)c1ccc(-n2nc(CCCNC(=O)Nc3ccccc3)cc2-c2ccccc2)cc1 [compound 2245, 4-{5-Phenyl-3-[3-(3-phenyl-ureido)-propyl]-pyrazol-1-yl}-benzenesulfonamide] | 15.8 % inhibition | 0.8 ± 0.1 nM | –
12 | CS(=O)(=O)c1ccc(-n2nc(CNC(=O)Nc3cccc(C(F)(F)F)c3)cc2-c2ccccc2)cc1 [compound 1861, 1-[1-(4-Methanesulfonyl-phenyl)-5-phenyl-1H-pyrazol-3-ylmethyl]-3-(3-trifluoromethyl-phenyl)-urea] | 7.8 % inhibition | 72 ± 8 nM | –
13 | CS(=O)(=O)c1ccc(-n2nc(CNC(=O)Nc3ccc(C(F)(F)F)cc3)cc2-c2ccccc2)cc1 [compound 2324, 1-[1-(4-Methanesulfonyl-phenyl)-5-phenyl-1H-pyrazol-3-ylmethyl]-3-(4-trifluoromethyl-phenyl)-urea] | 10.7 % inhibition | 110 ± 5 nM | –
14 | NS(=O)(=O)c1ccc(-n2nc(CCCNC(=O)Nc3ccc(C(F)(F)F)cc3)cc2-c2ccccc2)cc1 [compound 2328, 4-(5-Phenyl-3-{3-[3-(4-trifluoromethyl-phenyl)-ureido]-propyl}-pyrazol-1-yl)-benzenesulfonamide] | 22.7 % inhibition | 0.9 ± 0.1 nM | –
15 | NS(=O)(=O)c1ccc(-n2nc(CNC(=O)Nc3cccc(C(F)(F)F)c3)cc2-c2ccccc2)cc1 [compound 2107, 4-{5-Phenyl-3-[3-(3-trifluoromethyl-phenyl)-ureidomethyl]-pyrazol-1-yl}-benzenesulfonamide] | 16.9 % inhibition | 84 ± 6 nM | –
16 | CS(=O)(=O)c1ccc(-n2nc(CNC(=O)NC3CCCCCC3)cc2-c2ccccc2)cc1 [compound 2321, 1-Cycloheptyl-3-[1-(4-methanesulfonyl-phenyl)-5-phenyl-1H-pyrazol-3-ylmethyl]-urea] | 3.4 % inhibition | 2.6 ± 0.3 nM | –
17 | CC(C)c1cccc(C(C)C)c1NC(=O)NCCCc1cc(-c2ccccc2)n(-c2ccc(S(N)(=O)=O)cc2)n1 [compound 2325, 4-(3-{3-[3-(2,6-Diisopropyl-phenyl)-ureido]-propyl}-5-phenyl-pyrazol-1-yl)-benzenesulfonamide] | 6.2 % inhibition | 1550 ± 70 nM | –
18 | CCCCCCCCCCCCNC(=O)NC12CC3CC(CC(C3)C1)C2 [ADU, N-Adamantyl-N′-dodecyl urea] | – | – | activity as inhibitor of sEH [4]: particularly high activity; metabolic stability [5]: metabolically stable
19 | CCC(=O)N1CCC(NC(=O)Nc2ccc(OC(F)(F)F)cc2)CC1 [TPPU] | – | – | cAMP increase (% of Rolipram) [6]: 40 ± 10 % of Rolipram; improvement of FS with both sEHI and cells ([7]; MI+hiPSC-CM+TPPU, highest compared to other treatment groups): 40%; left ventricular fractional shortening (FS), MI+hiPSC-CM+TPPU group ([7]; after three weeks of TPPU treatment (before treatment 44±6%)): 61±2%; fractional shortening (FS), MI+TPPU group ([7]; post treatment): 55±0.7%; fractional shortening (FS), MI+TPPU+Vehicle (PBS injection) group ([7]; post treatment): 51±2%; half-life ([8]; compared with many previous compounds (ref. 50)): relatively longer half-life; area under the curve ([8]; in vivo): high area under the curve values; number of GFP+ hiPSC-CMs by flow cytometry [9]: 9.9±0.5%; BLI signal of transplanted GFP+ hiPSC-CMs [10]: 7.4×10^6±1.7×10^6 photons/s/cm^2/sr
20 | NS(=O)(=O)c1ccc(-n2nc(CCCNC(=O)Nc3ccc(Cl)cc3)cc2-c2ccccc2)cc1 [compound 2327, 4-(3-{3-[3-(4-Chloro-phenyl)-ureido]-propyl}-5-phenyl-pyrazol-1-yl)-benzenesulfonamide] | 15.2 % inhibition | 0.8 ± 0.1 nM | –
21 | Cc1ccc(-c2cc(CCCNC(=O)Nc3cccc(C(F)(F)F)c3)nn2-c2ccc(S(N)(=O)=O)cc2)cc1 [compound 2152, 4-(5-p-Tolyl-3-{3-[3-(3-trifluoromethyl-phenyl)-ureido]-propyl}-pyrazol-1-yl)-benzenesulfonamide] | 12.1 % inhibition | 10 ± 1 nM | –
22 | O=C(Nc1ccc(C(F)(F)F)cc1)NC1CCN(C(=O)C2(C(F)(F)F)CC2)CC1 | – | – | logP [11]: 4.63
23 | NS(=O)(=O)c1ccc(-n2nc(CCCNC(=O)Nc3cccc(C(F)(F)F)c3)cc2-c2ccccc2)cc1 [compound 2246, 4-(5-Phenyl-3-{3-[3-(3-trifluoromethyl-phenyl)-ureido]-propyl}-pyrazol-1-yl)-benzenesulfonamide] | 27.2 % inhibition | 4.1 ± 0.4 nM | –
24 | NS(=O)(=O)c1ccc(-n2nc(CCCNC(=O)NC34CC5CC(CC(C5)C3)C4)cc2-c2ccccc2)cc1 [compound 2326, 4-{3-[3-(3-Adamantan-1-yl-ureido)-propyl]-5-phenyl-pyrazol-1-yl}-benzenesulfonamide] | 6.7 % inhibition | 0.5 ± 0.1 nM | –
